The values below come from patent publication US6359001B1, “Use of α-methyl-p-tyrosine to inhibit melanin production in iris melanocytes” (Pharmacia AB, priority 1997, dated 2002).

In data set [1] the test system is uveal melanocytes. Description: Melanin production of cultured uveal (iris) melanocytes. Type of data set: cell-based. Conditions: for Melanin production: growth stage; for Melanin production by iris melanocytes (summary in words): in vitro experiments. The protocol: (§1) Uveal melanocytes were isolated and cultured from adult donor eyes. The iris was excised and placed in a dish with the posterior surface upward. The iris pigment epithelium was separated from the stroma after immersion in 0.25% trypsin solution (Gibco, USA) at 37° C. for 2 hour. The remaining iris stroma was placed in a 0.25% trypsin solution at 4° C. for 18 hours, followed by incubation at 37° C. for 1 hour. The isolated cells were collected. The trypsin solution was replaced by collagenase solution (400 U/ml, in F-12 medium, Sigma, USA) and incubated at 37° C. The collagenase solution was replaced, and the cells were collected, centrifuged, resuspended, and plated each hour for 3 hours.
(§2) The isolated uveal melanocytes were cultured in Falcon culture dishes (Becton Dickinson, USA) with FIC medium, which consisted of F-12 medium supplemented with 10% fetal bovine serum, 2 mM glutamine (all from Gibco), 10 ng/ml cholera toxin, 0.1 mM isobutylmethylxanthine, 50 μg/ml gentamicin (all from Sigma), and 20 ng/ml basic fibroblast growth factor (Promega, USA). The culture dishes were incubated in a humidified 5% CO2 atmosphere. The medium was changed three times a week. Geneticin (Sigma, USA); a cytotoxic agent, was added (100 μg/ml) for 3 to 7 days when necessary.
(§3) The 8 cell strains of uveal melanocytes used in the present study were isolated from donors with different iris color (brown and brown-blue).
(§4) Cultured uveal melanocytes were detached by trypsin-EDTA solution and counted in a hemocytometer, the cell suspensions were centrifuged, and the pellet was dissolved in 1 N NaOH. Melanin concentration was determined by measurement of optical density at 475 nm and compared with a standard curve obtained using synthetic melanin (Sigma). Melanin content was expressed as ng/cell.
Melanin production was calculated by determining the melanin content and the cell counts at the beginning and the end of each generation by the following formula: […]
where C0 and Ct represent the melanin content per cell at times 0 and time t, respectively; P is the population increase during time t, D is the doubling time of the uveal melanocytes; and Cp is melanin production per cell per day during time t.

The next data set relates to monkey iris. Conditions: cited from earlier work.
Another data set has as its target T1, tyrosinase (Homo sapiens, UniProt P14679).
T1 construct: endogenous in cells; host or cells: primary uveal (iris) melanocyte cell strains from donor eyes (brown and brown-blue irises)
T1 sequence (P14679 19-529): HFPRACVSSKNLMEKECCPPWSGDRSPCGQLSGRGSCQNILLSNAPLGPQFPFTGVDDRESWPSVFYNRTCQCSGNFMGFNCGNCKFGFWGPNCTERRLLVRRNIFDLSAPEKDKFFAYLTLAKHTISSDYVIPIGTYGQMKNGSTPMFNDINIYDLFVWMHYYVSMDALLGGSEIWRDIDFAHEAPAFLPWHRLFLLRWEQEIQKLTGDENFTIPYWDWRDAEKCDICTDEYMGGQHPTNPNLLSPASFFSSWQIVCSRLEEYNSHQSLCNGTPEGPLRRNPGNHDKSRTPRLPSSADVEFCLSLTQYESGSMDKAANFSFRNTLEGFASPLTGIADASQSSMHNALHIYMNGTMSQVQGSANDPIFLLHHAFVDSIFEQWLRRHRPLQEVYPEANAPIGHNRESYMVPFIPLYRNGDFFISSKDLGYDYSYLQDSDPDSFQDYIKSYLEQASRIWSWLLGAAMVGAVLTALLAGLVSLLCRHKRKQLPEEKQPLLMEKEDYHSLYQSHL
Description: Tyrosinase activity in uveal melanocyte cell strains (adapted Pomerantz method, 3H2O release). Conditions: for Tyrosinase activity: growth stage. Type of data set: cell-based. As for the experimental part: as §1, §2, §3
Tyrosinase activity was evaluated in nine cell strains using an adaptation of the Pomerantz method, which is based on the measurement of ^3H2O released by the enzymatic hydroxylation of tyrosine.

For data set [2], the system named is uveal melanocytes. Description: Melanin content of cultured uveal (iris) melanocytes. Conditions: for Melanin content: growth stage. The class given is cell-based. The protocol:
as §1, §2, §3, §4

For another data set, the system named is iris. Conditions: cited from earlier work.
The conditions of data set [3]: clinical concentrations for the treatment of pheocromocytoma; cited from earlier work.
Where [4] appears, read: 3 cell strains (brown-blue), latanoprost 10^−5 M, no α-methyl-p-tyrosine.
Where [5] appears, read: 3 cell strains (brown-blue), latanoprost 10^−6 M, no α-methyl-p-tyrosine.
Setting [6] is: 3 cell strains (brown-blue), latanoprost 10^−7 M, no α-methyl-p-tyrosine.
The mark [7] stands for this setting: 3 cell strains (brown-blue), latanoprost 10^−8 M, no α-methyl-p-tyrosine.
The mark [8] stands for this setting: 5 cell strains (brown), latanoprost 10^−5 M, no α-methyl-p-tyrosine.
Where [9] appears, read: 5 cell strains (brown), latanoprost 10^−6 M, no α-methyl-p-tyrosine.
Where [10] appears, read: 5 cell strains (brown), latanoprost 10^−7 M, no α-methyl-p-tyrosine.
Setting [11] is: 5 cell strains (brown), latanoprost 10^−8 M, no α-methyl-p-tyrosine.
Where [12] appears, read: brown and brown-blue iris strains, latanoprost at the highest molar concentrations.
Where [13] appears, read: 3 cell strains (brown-blue), α-methyl-p-tyrosine 10^−5, no latanoprost.
[14] abbreviates: 3 cell strains (brown-blue), α-methyl-p-tyrosine 10^−5 with latanoprost 10^−5 M.
Setting [15] is: 3 cell strains (brown-blue), α-methyl-p-tyrosine 10^−5 with latanoprost 10^−6 M.
The mark [16] stands for this setting: 3 cell strains (brown-blue), α-methyl-p-tyrosine 10^−5 with latanoprost 10^−7 M.
Where [17] appears, read: 3 cell strains (brown-blue), α-methyl-p-tyrosine 10^−5 with latanoprost 10^−8 M.
[18] abbreviates: 5 cell strains (brown), α-methyl-p-tyrosine 10^−5, no latanoprost.
The mark [19] stands for this setting: 5 cell strains (brown), α-methyl-p-tyrosine 10^−5 with latanoprost 10^−5 M.
[20] abbreviates: 5 cell strains (brown), α-methyl-p-tyrosine 10^−5 with latanoprost 10^−6 M.
The mark [21] stands for this setting: 5 cell strains (brown), α-methyl-p-tyrosine 10^−5 with latanoprost 10^−7 M.
Where [22] appears, read: 5 cell strains (brown), α-methyl-p-tyrosine 10^−5 with latanoprost 10^−8 M.
Setting [23] is: α-methyl-p-tyrosine 10^−5 M added with latanoprost 10^−7 to 10^−5 M, brown and brown-blue irises.

Like-named read-outs stand apart in the source and are kept apart here. Marks after values point to notes of the source that are not given here.

Regarding `CC(C)OC(=O)CCC/C=C\C[C@@H]1[C@@H](CC[C@@H](O)CCc2ccccc2)[C@H](O)C[C@@H]1O` [latanoprost, 13,14-dihydro-17-phenyl-18,19,20-tri-nor-PGF2αisopropyl ester], the Melanin production in the data set with uveal melanocytes [1] (setting [4]) was 0.0067* ng/cell/day; in the data set with uveal melanocytes [1] (setting [5]) it was 0.0056* ng/cell/day; with uveal melanocytes [1] (setting [6]), 0.0046* ng/cell/day; with uveal melanocytes [1] (setting [7]), 0.0038 ng/cell/day; in the data set on uveal melanocytes [1] (setting [8]), 0.0047* ng/cell/day; in the data set on uveal melanocytes [1] (setting [9]), 0.0036 ng/cell/day. Further, the Melanin production with uveal melanocytes [1] (setting [10]) is 0.0046* ng/cell/day; in the data set on uveal melanocytes [1] (setting [11]), 0.0038 ng/cell/day. Besides, in the data set with uveal melanocytes [1] (setting [12]), the “Melanin production (in words)” value was “increased”. Further, in the data set on monkey iris (chronic treatment), the “Pigmentation of the monkey iris” value is “increased pigmentation”. Moreover, the Tyrosinase activity on tyrosinase (setting [4]) is 62.7* units; at tyrosinase (setting [5]) it was 52.5* units; at tyrosinase (setting [6]), 48.1* units; at tyrosinase (setting [7]), 33.7 units; at tyrosinase (setting [8]) it was 63.1* units; on tyrosinase (setting [9]), 42.5 units. Moreover, the values for the Tyrosinase activity on tyrosinase (setting [10]) and at tyrosinase (setting [11]) were 38.3 units and 36.7 units, respectively. In addition, the “Tyrosinase activity (in words)” value on tyrosinase (setting [12]) is on record as “increased”. Also, the Melanin content was 0.0151* ng/cell in the data set with uveal melanocytes [2] (setting [4]); 0.0149* ng/cell with uveal melanocytes [2] (setting [5]); 0.0142* ng/cell with uveal melanocytes [2] (setting [6]); 0.0127 ng/cell in the data set on uveal melanocytes [2] (setting [7]); 0.0149* ng/cell in the data set on uveal melanocytes [2] (setting [8]); 0.0161* ng/cell with uveal melanocytes [2] (setting [9]). Also, the Melanin content in the data set with uveal melanocytes [2] (setting [10]) stood at 0.0151 ng/cell; in the data set on uveal melanocytes [2] (setting [11]) it was 0.0141 ng/cell. Moreover, in the data set with uveal melanocytes [2] (setting [12]), the “Melanin content (in words)” value is given as “increased”. In addition, the “Iris colour change in patients” value in the data set on iris (chronic therapy, sometimes noted) is “darkening of the iris”.

For `CCCCC[C@H](O)/C=C/[C@H]1[C@H](O)CC(=O)[C@@H]1C/C=C\CCCC(=O)O` [PGE2], the “Pigmentation of the monkey iris” value with monkey iris (chronic treatment) is “increased pigmentation”.

Consider `CCCCC[C@H](O)/C=C/[C@@H]1[C@@H](C/C=C\CCCC(=O)O)[C@@H](O)C[C@H]1O` [PGF2α], for which the “Pigmentation of the monkey iris” value in the data set on monkey iris (monkey, in vivo) was “increased pigmentation”.

On to `CC(N)(Cc1ccc(O)cc1)C(=O)O` (stereo not drawn) [α-methyl-p-tyrosine, α-methyl-para-tyrosine], for which the Melanin production in the data set on uveal melanocytes [1] (setting [13]) is 0.0023 ng/cell/day; in the data set on uveal melanocytes [1] (setting [14]), 0.0031 ng/cell/day; with uveal melanocytes [1] (setting [15]) it was 0.0029 ng/cell/day; in the data set with uveal melanocytes [1] (setting [16]) it was 0.0029 ng/cell/day; with uveal melanocytes [1] (setting [17]) it was 0.0025 ng/cell/day; in the data set on uveal melanocytes [1] (setting [18]), 0.0033 ng/cell/day. Also, the Melanin production in the data set with uveal melanocytes [1] (setting [19]) was found to be 0.0031 ng/cell/day; with uveal melanocytes [1] (setting [20]) it was 0.0029 ng/cell/day; in the data set with uveal melanocytes [1] (setting [21]) it was 0.0039 ng/cell/day; in the data set with uveal melanocytes [1] (setting [22]), 0.0035 ng/cell/day. The “Melanin production by iris melanocytes (summary in words)” value with uveal melanocytes [1] was “inhibited”; in the data set with uveal melanocytes [1] (listed as α-methyl-para-tyrosine) it was “significantly reduced”. Moreover, in the data set with uveal melanocytes [1] (setting [23]), the “Melanin production (in words)” value is given as “significant decrease”. Moreover, the Tyrosinase activity is 32.4 units at tyrosinase (setting [13]); 39.5 units on tyrosinase (setting [14]); 34.6 units at tyrosinase (setting [15]); 31.7 units at tyrosinase (setting [16]); 34.6 units at tyrosinase (setting [17]); 33.6 units at tyrosinase (setting [18]). Further, the Tyrosinase activity stood at 31.5 units on tyrosinase (setting [19]), 34.6 units on tyrosinase (setting [20]), 38.7 units on tyrosinase (setting [21]) and 35.5 units at tyrosinase (setting [22]). Further, the “Tyrosinase activity (in words)” value on tyrosinase (setting [23]) was “significant decrease”. For the same compound, the Melanin content in the data set with uveal melanocytes [2] (setting [13]) is 0.0122 ng/cell; in the data set with uveal melanocytes [2] (setting [14]), 0.0128 ng/cell; in the data set with uveal melanocytes [2] (setting [15]), 0.0125 ng/cell; with uveal melanocytes [2] (setting [16]), 0.0123 ng/cell; in the data set on uveal melanocytes [2] (setting [17]) it was 0.0119 ng/cell; in the data set on uveal melanocytes [2] (setting [18]) it was 0.0133 ng/cell. Also, the Melanin content amounted to 0.0131 ng/cell in the data set on uveal melanocytes [2] (setting [19]), 0.0137 ng/cell in the data set with uveal melanocytes [2] (setting [20]), 0.0136 ng/cell in the data set on uveal melanocytes [2] (setting [21]) and 0.0135 ng/cell with uveal melanocytes [2] (setting [22]). Further, the “Melanin content (in words)” value with uveal melanocytes [2] (setting [23]) is listed as “significant decrease”. The “Catecholamine concentration in the body” value in data set [3] is on record as “markedly reduced”.

Take `CCCCCCCC(=O)CC[C@@H]1[C@@H](C/C=C\CCCC(=O)OC(C)C)[C@@H](O)C[C@H]1O` [isopropyl unoprostone, 13,14-dihydro-15-keto-20-ethyl-PGF2α isopropylester]: the “Iris colour change in patients” value in the data set with iris (human, in vivo) was “darkening of the iris”.
